Test results published in patent US10407467B2, “Polymyxin derivatives and their use in combination therapy together with different antibiotics” (priority 2013, dated 2019).
Counter-ions that a name gives are not always drawn. Numbered stars: 1 amine (or outer) side, 2 acyl side, 3 side chain; on linkers, the order of the positions; unused ones are H or OH. Bridge positions count the residues as written; N and C are the ends. Square brackets hold non-standard residues; d marks the D form. Peptide text beside a SMILES is read from it. * marks the point of attachment. ξ: configuration not given here. Acetyl(cis-4-NH-cyclohexyl) = O=C(C[C@H]1CC[C@@H](N[*:1])CC1)[*:2]; ξβ3hGly(cHex) = NC(CC(=O)*)C1CCCCC1; X8 = N[C@@H]1CC[C@H](C(=O)*)C1; Thr(3ξ) = CC(O)[C@H](N)C(=O)O; X11 = O=C(C(O)c1cccc(Br)c1)*; X5 = O=C(C[C@@H]1CCCCN1)*; Dab = NCC[C@H](N)C(=O)O; X4 = NC1CCCC1C(=O)*

Legend:
Test in all cases: MIC, compound in combination with a second agent (broth microdilution)
Format in all cases: cell-based
Escherichia coli = conditions: 1:1 (wt:wt) combination with Rifampicin
How it was run: (§1)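 Equal-mass combos (compound in TFA or sulphate salt form plus second agent); direct colony suspension, 0.5 McFarland; duplicate wells; MIC expressed as summed concentration of both drugs.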

Acinetobacter baumannii = conditions: 1:1 (wt:wt) combination with Rifampicin
How it was run: as §1

Klebsiella pneumoniae = conditions: 1:1 (wt:wt) combination with Rifampicin; for MIC K. pneumoniae ATCC 4352: strain ATCC 4352
How it was run: as §1

Pseudomonas aeruginosa = conditions: 1:1 (wt:wt) combination with Rifampicin
How it was run: as §1

[1] = MIC = total drug concentration, strain ATCC25922
[2] = MIC = total drug concentration, strain NCTC9001
[3] = MIC = total drug concentration, strain ATCC BAA-747
[4] = MIC = total drug concentration, strain CCUG57249
[5] = MIC = total drug concentration, strain NCTC 13423
[6] = MIC = total drug concentration, strain NCTC 13424
[7] = MIC = total drug concentration, strain ATCC-BAA-2146
[8] = MIC = total drug concentration, strain CCUG-59348
[9] = MIC = total drug concentration, strain NCTC 13438
[10] = MIC = total drug concentration, strain ATCC 27853
[11] = MIC = total drug concentration, strain ATCC CRM-9027
[12] = MIC = total drug concentration, strain ATCC-47
[13] = MIC = total drug concentration, strain CCUG 59626
[14] = MIC is total drug concentration

Structure (SMILES)	MIC E. coli ATCC25922 (Escherichia coli; [1]) [micrograms/mL]	MIC E. coli NCTC9001 (Escherichia coli; [2]) [micrograms/mL]	MIC A. baumannii ATCC BAA-747 (Acinetobacter baumannii; [3]) [micrograms/mL]	MIC A. baumannii CCUG57249 (Acinetobacter baumannii; [4]) [micrograms/mL]	MIC A. baumannii NCTC 13423 (Acinetobacter baumannii; [5]) [micrograms/mL]	MIC A. baumannii NCTC 13424 (Acinetobacter baumannii; [6]) [micrograms/mL]	MIC K. pneumoniae ATCC-BAA-2146 (Klebsiella pneumoniae; [7]) [micrograms/mL]	MIC K. pneumoniae CCUG-59348 (Klebsiella pneumoniae; [8]) [micrograms/mL]	MIC K. pneumoniae NCTC 13438 (Klebsiella pneumoniae; [9]) [micrograms/mL]	MIC P. aeruginosa ATCC 27853 (Pseudomonas aeruginosa; [10]) [micrograms/mL]	MIC P. aeruginosa ATCC CRM-9027 (Pseudomonas aeruginosa; [11]) [micrograms/mL]	MIC P. aeruginosa ATCC-47 (Pseudomonas aeruginosa; [12]) [micrograms/mL]	MIC P. aeruginosa CCUG 59626 (Pseudomonas aeruginosa; [13]) [micrograms/mL]	also measured
CC(C)C[C@@H]1NC(=O)[C@@H](CC(C)C)NC(=O)[C@H](CCN)NC(=O)[C@@H](NC(=O)[C@H](CCN)NC(=O)[C@@H](NC(=O)C(O)C2CCCCC2)C(C)O)CCNC(=O)[C@H](C(C)O)NC(=O)[C@H](CCN)NC(=O)[C@H](CCN)NC1=O (single isomer, unassigned; isomer 1) [Example 31, 2(RS)-(2-Hydroxy-2-cyclohexyl)ethanoyl polymyxin E nonapeptide, TFA salt. Isomer 1]	0.25	0.5	0.25	0.25	0.25	0.5	2	2	1	0.5	0.5	0.5	0.25	–
CC(C)C[C@@H]1NC(=O)[C@@H](Cc2ccccc2)NC(=O)[C@H](CCN)NC(=O)[C@@H](NC(=O)[C@H](CCN)NC(=O)[C@@H](NC(=O)C(O)c2cccc(Br)c2)C(C)O)CCNC(=O)[C@H](C(C)O)NC(=O)[C@H](CCN)NC(=O)[C@H](CCN)NC1=O (stereo partly shown) [Example 18] (X11-[Thr(3ξ)][Dab][Dab][Dab][dF]L[Dab][Dab][Thr(3ξ)]; lactam 3-C)	0.125	1	–	≤0.06	0.125	0.125	0.5	2	0.5	0.25	1	0.5	0.25	MIC K. pneumoniae ATCC 4352 (Klebsiella pneumoniae; MIC = total drug concentration): 0.125 micrograms/mL
CC(C)C[C@@H]1NC(=O)[C@@H](CC(C)C)NC(=O)[C@H](CCN)NC(=O)[C@@H](NC(=O)[C@H](CCN)NC(=O)[C@@H](NC(=O)CC(N)C2CCCCC2)C(C)O)CCNC(=O)[C@H](C(C)O)NC(=O)[C@H](CCN)NC(=O)[C@H](CCN)NC1=O (stereo partly drawn) [Example 30, 3(R,S)-3-Amino-3-cyclohexane-propanoyl]Polymyxin E nonapeptide, TFA salt] ({ξβ3hGly(cHex)}-[Thr(3ξ)][Dab][Dab][Dab][dL]L[Dab][Dab][Thr(3ξ)]; lactam 3-C)	0.25	–	≤0.06	0.125	≤0.06	<0.06	0.25	2	0.5	0.25	0.125	0.125	0.25	–
CC(C)C[C@@H]1NC(=O)[C@@H](Cc2ccccc2)NC(=O)[C@H](CCN)NC(=O)[C@@H](NC(=O)[C@H](CCN)NC(=O)[C@@H](NC(=O)C[C@@H]2CCCCN2)C(C)O)CCNC(=O)[C@H](C(C)O)NC(=O)[C@H](CCN)NC(=O)[C@H](CCN)NC1=O (stereo partly drawn) [Example 33, (2S)-piperidin-2-yl-ethanoyl polymyxin B nonapeptide, trifluoroacetate salt] (X5-[Thr(3ξ)][Dab][Dab][Dab][dF]L[Dab][Dab][Thr(3ξ)]; lactam 3-C)	≤0.06	0.125	≤0.06	≤0.06	≤0.06	≤0.06	0.125	2	0.125	≤0.06	≤0.06	≤0.06	≤0.06	MIC E. coli ATCC25922 (Escherichia coli; [14]): ≤0.06 micrograms/mL; MIC E. coli NCTC9001 (Escherichia coli; [14]): 0.125 micrograms/mL; MIC A. baumannii ATCC BAA-747 (Acinetobacter baumannii; [14]): ≤0.06 micrograms/mL; MIC A. baumannii CCUG57249 (Acinetobacter baumannii; [14]): ≤0.06 micrograms/mL; MIC A. baumannii NCTC 13423 (Acinetobacter baumannii; [14]): ≤0.06 micrograms/mL; MIC A. baumannii NCTC 13424 (Acinetobacter baumannii; [14]): ≤0.06 micrograms/mL; MIC K. pneumoniae ATCC-BAA-2146 (Klebsiella pneumoniae; [14]): 0.125 micrograms/mL; MIC K. pneumoniae CCUG-59348 (Klebsiella pneumoniae; [14]): 2 micrograms/mL; MIC K. pneumoniae NCTC 13438 (Klebsiella pneumoniae; [14]): 0.125 micrograms/mL; MIC P. aeruginosa ATCC 27853 (Pseudomonas aeruginosa; [14]): ≤0.06 micrograms/mL; MIC P. aeruginosa ATCC CRM-9027 (Pseudomonas aeruginosa; [14]): ≤0.06 micrograms/mL; MIC P. aeruginosa ATCC-47 (Pseudomonas aeruginosa; [14]): ≤0.06 micrograms/mL; MIC P. aeruginosa CCUG 59626 (Pseudomonas aeruginosa; [14]): ≤0.06 micrograms/mL
CC(C)C[C@@H]1NC(=O)[C@@H](Cc2ccccc2)NC(=O)[C@H](CCN)NC(=O)[C@@H](NC(=O)[C@@H](CO)NC(=O)[C@@H](NC(=O)C2CCCC2N)C(C)O)CCNC(=O)[C@H](C(C)O)NC(=O)[C@H](CCN)NC(=O)[C@H](CCN)NC1=O (stereo partly drawn) [Example 44, [2-Amino-cyclopentane-carbonyl]-L-Thr-D-Ser-polymyxin B hepatapeptide, TFA salt] (X4-[Thr(3ξ)][dS][Dab][Dab][dF]L[Dab][Dab][Thr(3ξ)]; lactam 3-C)	0.125	0.5	0.25	0.125	0.125	0.125	1	4	–	0.5	0.5	1	0.5	MIC K. pneumoniae ATCC 4352 (Klebsiella pneumoniae; MIC = total drug concentration): 0.125 micrograms/mL

Now from value to compound, other results behind:

MIC E. coli ATCC25922 (Escherichia coli; [1]) [micrograms/mL]	MIC E. coli NCTC9001 (Escherichia coli; [2]) [micrograms/mL]	MIC A. baumannii ATCC BAA-747 (Acinetobacter baumannii; [3]) [micrograms/mL]	MIC A. baumannii CCUG57249 (Acinetobacter baumannii; [4]) [micrograms/mL]	MIC A. baumannii NCTC 13423 (Acinetobacter baumannii; [5]) [micrograms/mL]	MIC A. baumannii NCTC 13424 (Acinetobacter baumannii; [6]) [micrograms/mL]	MIC K. pneumoniae ATCC-BAA-2146 (Klebsiella pneumoniae; [7]) [micrograms/mL]	MIC K. pneumoniae CCUG-59348 (Klebsiella pneumoniae; [8]) [micrograms/mL]	MIC K. pneumoniae NCTC 13438 (Klebsiella pneumoniae; [9]) [micrograms/mL]	MIC P. aeruginosa ATCC 27853 (Pseudomonas aeruginosa; [10]) [micrograms/mL]	MIC P. aeruginosa ATCC CRM-9027 (Pseudomonas aeruginosa; [11]) [micrograms/mL]	MIC P. aeruginosa ATCC-47 (Pseudomonas aeruginosa; [12]) [micrograms/mL]	MIC P. aeruginosa CCUG 59626 (Pseudomonas aeruginosa; [13]) [micrograms/mL]	Structure (SMILES)	also measured
–	0.125	≤0.06	≤0.06	≤0.06	≤0.06	0.125	4	0.25	0.125	–	0.125	0.125	CC(C)C[C@@H]1NC(=O)[C@@H](Cc2ccccc2)NC(=O)[C@H](CCN)NC(=O)[C@@H](NC(=O)[C@H](CCN)NC(=O)[C@@H](NC(=O)[C@H]2CC[C@@H](N)C2)C(C)O)CCNC(=O)[C@H](C(C)O)NC(=O)[C@H](CCN)NC(=O)[C@H](CCN)NC1=O (stereo partly drawn) [Example 34A, (1S,3R)-3- Aminocyclopentane carbonyl polymyxin B nonapeptide, trifluoroacetate salt] (X8-[Thr(3ξ)][Dab][Dab][Dab][dF]L[Dab][Dab][Thr(3ξ)]; lactam 3-C)	MIC E. coli ATCC25922 (Escherichia coli; MIC = total drug concentration, strain ATCC25922, trifluoroacetate salt): ≤0.06 micrograms/mL; MIC P. aeruginosa ATCC CRM-9027 (Pseudomonas aeruginosa; MIC = total drug concentration, strain ATCC CRM-9027, trifluoroacetate salt): 0.125 micrograms/mL
0.25	0.125	0.125	0.25	0.125	0.5	0.5	4	1	0.25	0.25	0.125	0.25	CC(C)C[C@@H]1NC(=O)[C@@H](Cc2ccccc2)NC(=O)[C@H](CCN)NC(=O)[C@@H](NC(=O)[C@H](CCN)NC(=O)[C@@H](NC(=O)C[C@H]2CC[C@@H](N)CC2)C(C)O)CCNC(=O)[C@H](C(C)O)NC(=O)[C@H](CCN)NC(=O)[C@H](CCN)NC1=O (stereo partly drawn) [Example 36, Cis-2-(4-aminocyclohexane) ethanoyl polymyxin B nonapeptide, trifluoroacetate salt] ({Acetyl(cis-4-NH-cyclohexyl)}-[Thr(3ξ)][Dab][Dab][Dab][dF]L[Dab][Dab][Thr(3ξ)]; lactam 3-C)	–
